biological target: 5HT3a receptor expressed in HEK-293T cells (Homo sapiens (Human), UniProt P46098); experiment: Inhibition of Ca flux activity of 5HT3 in vitro assay; assay type: cell-based; conditions: calcium flux, 5HT 216 nM, approximate values
Protocol: Inhibition of Ca Flux Activity of 5HT3 In Vitro Assay
The 5HT3 antagonist activity of the compounds of the invention was determined by measuring the ability of the compounds to inhibit the calcium flux activity of […] receptor expressed in HEK-293T cells. HEK-293T cells were transfected with the 5HT3a expression construct using Xtreme Gene 9 (Roche) in 150 mm tissue culture treated plates and incubated for 24 hours at 37° C. Cells were then split and plated at a density of 60K cells/well in poly-lysine coated, black 96-well plates with clear bottoms (BD BioSciences) and incubated overnight at 37° C. Growth media was removed and cells loaded with 200 uL calcium indicator dye in HBSS containing 20 mM HEPES (Calcium 5 Assay kit, Molecular Devices) and incubated at 37° C. for 1 hour. While cells were incubating, the 10× antagonist and agonist/antagonist addition plates were made. For 10× antagonist plate: half log serial dilutions (final concentrations range from 10^−7 through 10^−10 with the bottom well a negative, no ligand control) were made from test compounds in DMSO at a 1000× concentration and then diluted to 10× in HBSS/20 mM HEPES. For addition plate: 5HT was diluted to 100× in HBSS/20 mM HEPES (final concentration in the assay—216 nM) and 15 uL was added to each well of the addition plate, 15 uL of 10× compound was also added to the addition plate, and finally 120 uL of HBSS/20 mM HEPES (for a total of 150 uL). Cells were then removed from the incubator and equilibrated to room temperature for 10 minutes, then 22.5 uL of 10× test compounds were added in triplicate to the plates and incubated at room temperature for 10 minutes (Tropisetron was used as a positive control in every assay). Test plate and addition plate were loaded into the FlexStation III (Molecular Devices), and using the fluidics, 22.5 uL compound additions were made (at t=˜17 seconds), and fluorescence was measured for 90 seconds, reading every 2.2 seconds. Data sets were analyzed as max minus min using Software Max Pro (Molecular Devices). IC50 curves were generated using non-linear regression in GraphPad Prism.

Sequence of 5HT3a receptor expressed in HEK-293T cells (P46098 24-478): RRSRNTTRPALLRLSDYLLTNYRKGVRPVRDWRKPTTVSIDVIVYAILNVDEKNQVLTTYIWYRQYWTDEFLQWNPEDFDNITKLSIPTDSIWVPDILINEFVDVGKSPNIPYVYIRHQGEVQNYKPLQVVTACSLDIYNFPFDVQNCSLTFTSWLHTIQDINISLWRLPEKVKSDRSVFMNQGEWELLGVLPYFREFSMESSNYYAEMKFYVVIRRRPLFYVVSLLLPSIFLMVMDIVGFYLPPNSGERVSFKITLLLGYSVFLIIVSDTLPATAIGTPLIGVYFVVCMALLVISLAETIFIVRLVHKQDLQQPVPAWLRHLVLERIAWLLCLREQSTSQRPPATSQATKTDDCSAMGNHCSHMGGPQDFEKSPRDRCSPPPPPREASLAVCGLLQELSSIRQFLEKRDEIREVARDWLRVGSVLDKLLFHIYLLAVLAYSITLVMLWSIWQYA

Compound | IC50 [nM]
CN1C2CCC1CC(NC(=O)c1nn(S(C)(=O)=O)c3ccccc13)C2 [Example 62, N-((1R,3R,5S)-8-methyl-8-azabicyclo[3.2.1]octan-3-yl)-1-(methylsulfonyl)-1H-indazole-3-carboxamide, 2,2,2-trifluoroacetate] | 0.75
CN1[C@@H]2COC[C@H]1CC(NC(=O)c1cn(CC(F)F)c3ccc(F)cc13)C2 (stereo partly drawn) [Example 63, 1-(2,2-difluoroethyl)-5-fluoro-N-((1R,5S,7S)-9-methyl-3-oxa-9-azabicyclo[3.3.1]nonan-7-yl)-1H-indole-3-carboxamide, 2,2,2-trifluoroacetate] | 0.49
CN1C2COCC1CC(NC(=O)c1cn(CC(F)F)c3ncccc13)C2 [Example 64, 1-(2,2-difluoroethyl)-N-((1R,5S,7S)-9-methyl-3-oxa-9-azabicyclo[3.3.1]nonan-7-yl)-1H-pyrrolo[2,3-b]pyridine-3-carboxamide, 2,2,2-trifluoroacetate] | 1.43
O=C(NC1C[C@H]2COC[C@@H](C1)N2)c1nn(CC(F)F)c2ccccc12 (stereo partly drawn) [Example 65, N-((1R,5S,7S)-3-oxa-9-azabicyclo[3.3.1]nonan-7-yl)-1-(2,2-difluoroethyl)-1H-indazole-3-carboxamide, 2,2,2-trifluoroacetate] | 4.09
CN1[C@@H]2COC[C@H]1CC(NC(=O)c1nn(CC(F)F)c3ncccc13)C2 (stereo partly drawn) [Example 66, 1-(2,2-difluoroethyl)-N-((1R,5S,7S)-9-methyl-3-oxa-9-azabicyclo[3.3.1]nonan-7-yl)-1H-pyrazolo[3,4-b]pyridine-3-carboxamide, 2,2,2-trifluoroacetate] | 1.07
O=C(N[C@H]1CN2CCC1CC2)c1cn(CC(F)F)c2ncccc12 [Example 67, (R)-1-(2,2-difluoroethyl)-N-(quinuclidin-3-yl)-1H-pyrrolo[2,3-b]pyridine-3-carboxamide, 2,2,2-trifluoroacetate] | > 1000
CN1C2COCC1CC(NC(=O)c1cn(C(C)(C)C(F)(F)F)c3ncccc13)C2 [Example 69, N-((1R,5S,7S)-9-methyl-3-oxa-9-azabicyclo[3.3.1]nonan-7-yl)-1-(1,1,1-trifluoro-2-methylpropan-2-yl)-1H-pyrrolo[2,3-b]pyridine-3-carboxamide, 2,2,2-trifluoroacetate] | 1.06
CN1[C@@H]2CC[C@H]1CC(OC(=O)c1cn(CC(F)F)c3ncccc13)C2 (stereo partly drawn) [Example 72, (1R,3R,5S)-8-methyl-8-azabicyclo[3.2.1]octan-3-yl 1-(2,2-difluoroethyl)-1H-pyrrolo[2,3-b]pyridine-3-carboxylate, 2,2,2-trifluoroacetate] | 3.59
Cc1c(C(=O)OC2C[C@H]3CC[C@@H](C2)N3C)c2ccccc2n1CC(F)F (stereo partly drawn) [Example 73, (1R,3R,5S)-8-methyl-8-azabicyclo[3.2.1]octan-3-yl 1-(2,2-difluoroethyl)-2-methyl-1H-indole-3-carboxylate, 2,2,2-trifluoroacetate] | 3.15
CN1[C@@H]2CC[C@H]1CC(NC(=O)c1cn(S(C)(=O)=O)c3ccccc13)C2 (stereo partly drawn) [Example 74, N-((1R,3R,5S)-8-methyl-8-azabicyclo[3.2.1]octan-3-yl)-1-(methylsulfonyl)-1H-indole-3-carboxamide, 2,2,2-trifluoroacetate] | 0.42
CN1[C@@H]2CC[C@H]1CC(NC(=O)c1cn(CC(F)F)c3ccc(F)cc13)C2 (stereo partly drawn) [Example 75, 1-(2,2-difluoroethyl)-5-fluoro-N-((1R,3R,5S)-8-methyl-8-azabicyclo[3.2.1]octan-3-yl)-1H-indole-3-carboxamide, 2,2,2-trifluoroacetate] | 3.15
CN1[C@@H]2CC[C@H]1CC(NC(=O)c1cn(CC(F)F)c3ncccc13)C2 (stereo partly drawn) [Example 76, 1-(2,2-difluoroethyl)-N-((1R,3R,5S)-8-methyl-8-azabicyclo[3.2.1]octan-3-yl)-1H-pyrrolo[2,3-b]pyridine-3-carboxamide, 2,2,2-trifluoroacetate] | 1.22
CN1[C@@H]2CCC[C@H]1CC(NC(=O)c1cn(CC(F)F)c3ncccc13)C2 (stereo partly drawn) [Example 77, 1-(2,2-difluoroethyl)-N-((1R,3R,5S)-9-methyl-9-azabicyclo[3.3.1]nonan-3-yl)-1H-pyrrolo[2,3-b]pyridine-3-carboxamide, 2,2,2-trifluoroacetate] | 10.5
CS(=O)(=O)n1cc(C(=O)NC2C[C@H]3COC[C@@H](C2)N3)c2cc(F)ccc21 (stereo partly drawn) [Example 78, N-((1R,5S,7S)-3-oxa-9-azabicyclo[3.3.1]nonan-7-yl)-5-fluoro-1-(methylsulfonyl)-1H-indole-3-carboxamide, 2,2,2-trifluoroacetate] | 4.81
CN1C2COCC1CC(NC(=O)c1cn(CCF)c3ccccc13)C2 [Example 79, 1-(2-fluoroethyl)-N-((1R,5S,7S)-9-methyl-3-oxa-9-azabicyclo-[3.3.1]nonan-7-yl)-1H-indole-3-carboxamide, 2,2,2-trifluoroacetate] | 0.41
CN1[C@@H]2COC[C@H]1CC(NC(=O)c1cn(C(F)C(F)(F)F)c3ncccc13)C2 (stereo partly drawn) [Example 81, N-((1R,5S,7S)-9-methyl-3-oxa-9-azabicyclo[3.3.1]nonan-7-yl)-1-(1,2,2,2-tetrafluoroethyl)-1H-pyrrolo[2,3-b]pyridine-3-carboxamide, 2,2,2-trifluoroacetate] | 1.44
O=C(NC1C[C@H]2COC[C@@H](C1)N2)c1cn(CC(F)F)c2ncccc12 (stereo partly drawn) [Example 82, N-((1R,5S,7S)-3-oxa-9-azabicyclo[3.3.1]nonan-7-yl)-1-(2,2-difluoroethyl)-1H-pyrrolo[2,3-b]pyridine-3-carboxamide, 2,2,2-trifluoroacetate] | > 1000
CN1[C@@H]2CC[C@H]1CC(OC(=O)c1cn([C@@H]3CCOC3)c3ccccc13)C2 (stereo partly drawn) [Example 83, (1R,3R,5S)-8-methyl-8-azabicyclo[3.2.1]octan-3-yl 1-((R)-tetrahydrofuran-3-yl)-1H-indole-3-carboxylate, 2,2,2-trifluoroacetate] | 1.04
CN1[C@@H]2CC[C@H]1CC(OC(=O)c1c3n(c4ccccc14)CCCCO3)C2 (stereo partly drawn) [Example 84, (1R,3R,5S)-8-methyl-8-azabicyclo[3.2.1]octan-3-yl 2,3,4,5-tetrahydro-[1,3]oxazepino[3,2-a]indole-11-carboxylate, 2,2,2-trifluoroacetate] | 1.64
CN1[C@@H]2CC[C@H]1CC(OC(=O)c1c3n(c4ccccc14)CCCO3)C2 (stereo partly drawn) [Example 85, (1R,3R,5S)-8-methyl-8-azabicyclo[3.2.1]octan-3-yl 3,4-dihydro-2H-[1,3]oxazino[3,2-a]indole-10-carboxylate, 2,2,2-trifluoroacetate] | 1.04
CN1[C@@H]2CC[C@H]1CC(OC(=O)c1cn(S(C)(=O)=O)c3ccc(F)cc13)C2 (stereo partly drawn) [Example 86, (1R,3R,5S)-8-methyl-8-azabicyclo[3.2.1]octan-3-yl 5-fluoro-1-(methylsulfonyl)-1H-indole-3-carboxylate, 2,2,2-trifluoroacetate] | 2.48
CN1[C@@H]2CCC[C@H]1CC(OC(=O)c1cn(CCF)c3ccccc13)C2 (stereo partly drawn) [Example 87, (1R,3R,5S)-9-methyl-9-azabicyclo[3.3.1]nonan-3-yl 1-(2-fluoroethyl)-1H-indole-3-carboxylate, 2,2,2-trifluoroacetate] | 0.18
Cc1c(C(=O)OC2C[C@H]3CCC[C@@H](C2)N3C)c2ccccc2n1CCF (stereo partly drawn) [Example 88, (1R,3R,5S)-9-methyl-9-azabicyclo[3.3.1]nonan-3-yl 1-(2-fluoroethyl)-2-methyl-1H-indole-3-carboxylate, 2,2,2-trifluoroacetate] | 0.22
CN1[C@@H]2CCC[C@H]1CC(OC(=O)c1cn(CC(F)(F)F)c3ccc(F)cc13)C2 (stereo partly drawn) [Example 89, (1R,3R,5S)-9-methyl-9-azabicyclo[3.3.1]nonan-3-yl 5-fluoro-1-(2,2,2-trifluoroethyl)-1H-indole-3-carboxylate, 2,2,2-trifluoroacetate] | 0.66
CN1[C@@H]2CC[C@H]1C[C@@H](NC(=O)c1nn(CC(F)F)c3ccccc13)C2 [Example 90, 1-(2,2-difluoroethyl)-N-((1R,3R,5S)-8-methyl-8-azabicyclo-[3.2.1]octan-3-yl)-1H-indazole-3-carboxamide, 2,2,2-trifluoroacetate] | 0.75
O=C(O[C@H]1CC[N@@]2CCO[C@@H]1C2)c1cn(CC(F)F)c2ccc(F)cc12 [Example 91, (1S,5R,6S)-4-oxa-1-azabicyclo[3.3.1]nonan-6-yl 1-(2,2-difluoroethyl)-5-fluoro-1H-indole-3-carboxylate, 2,2,2-trifluoroacetate] | > 1000
CC(C)S(=O)(=O)n1cc(C(=O)NC2CC3COCC(C2)N3C)c2cc(F)ccc21 [Example 93, 5-fluoro-1-(isopropylsulfonyl)-N-((1R,5S,7S)-9-methyl-3-oxa-9-azabicyclo[3.3.1]nonan-7-yl)-1H-indole-3-carboxamide, 2,2,2-trifluoroacetate] | 1.39

From patent US9303045B2, “5-HT3 receptor antagonists” (Takeda Pharmaceutical Company Limited, priority 2013, dated 2016)
